In patent US20260183321A1, “TREATMENT OF CORONAVIRUS INFECTIONS WITH ANTIMICROBIAL PHOSPHOLIPID COMPOSITIONS” (NATIONAL JEWISH HEALTH, priority 2022, published 2026):

Columns and labels:
SARS-CoV-2 [1] = test: cytopathic effect by SARS-CoV-2 in VeroE6 cells (histological images); assay type: cell-based; details: 72 hrs after infection, POPG 1000 μg/ml, PI 500 μg/ml, PC 2000 μg/ml
VeroE6 cells = test: cell viability assays on VeroE6 cells; assay type: cell-based, African green monkey; details: 2 mg/ml
[2] = target: T1, SARS-CoV-2 S1 ECD protein (Severe acute respiratory syndrome coronavirus 2, UniProt P0DTC2); test: binding to SARS-CoV-2 S1 ECD protein
T1 construct: SARS-CoV-2 S1 ECD protein

[3] = tested on: primary human bronchial epithelial cells; test: 3H-leucine protein synthesis and secretion in primary human bronchial epithelial cells in ALI cultures; assay type: cell-based; details: for pleiotropic inhibition of metabolism (3H-intracellular protein synthesis, 3H secreted protein): 64 h with 3H-leucine, 5 mg/mL POPG or 2 mg/ml PI in apical media; for cytotoxic effects on primary airway epithelial cells: cells from patients with COPD as worded in b103 (FIGS. 11A-11B)
Procedure: Bronchial epithelia cells were incubated for 64 h with 3H-leucine in either the presence, or absence of 5 mg/mL of POPG; or 2 mg/ml of PI in only the apical media. 3H-intracellular protein synthesis (FIG. 11A), and 3H secreted protein in apical media (FIG. 11B) are shown. […]

SARS-CoV-2 [4] = assay type: cell-based; details: 48 hrs; for reduction of SARS-CoV-2 mRNA expression: healthy control subjects (n=3), lipid 16 hrs before infection, 5 mg/ml POPG, 2 mg/ml PI
SARS-CoV-2 [5] = test: quantitative plaque assay for SARS-CoV-2 in VeroE6 cells; assay type: cell-based; design: lowest concentration with significant reduction in viral load: unit not given here; details: for suppression of the viral burden elicited by SARS-CoV-2: MOI 0.01, 24 Hr after the initial infection, simultaneous treatment with virus plus lipid
Procedure: VeroE6 cells were infected with SARS-CoV-2 at an MOI=0.01 in either the absence of lipids, or presence of POPG, or PI, or POPC, at concentrations of 250 μg/ml-1000 μg/ml (SARS-CoV-2+POPG, SARS-CoV-2+PI) or the control lipid phosphatidylcholine (PC), at various concentrations (250 μg-1000 μg/ml) (SARS-CoV-2+PC). Cells were preincubated with lipids 30 mins before viral inoculation. Culture media was harvested at 24 hr and processed for quantitative plaque assay for SARS-CoV-2 (FIG. 1A) and for viral yield as a function of phospholipid concentration (FIG. 1). The data are shown as mean+/−SE for three independent experiments in log10 scale. is a graph of viral yield as a function of phospholipid concentration.
A sample holder containing 96 wells (3 plates) was provided and was plated with VeroE6 cells (a cell lineage isolated from kidney epithelial cells extracted from an African green monkey) at a concentration of 5×10^4 cells/well in 100 μl of medium. The medium utilized comprised Dulbecco's Modified Eagle Medium (DMEM), 5% fetal bovine serum (FCS), 1% L-glutamine, and 10,000 U/ml penicillin-streptomycin (PS). Here, it is noted that the antibiotics penicillin and streptomycin are commonly utilized to prevent bacterial contamination of cell cultures due to their effective combined action against gram-positive and gram-negative bacteria.
The wells were washed two times with calcium-free and magnesium-free phosphate buffered saline (PBS) (100 μl/well), and then an additional time with a culture medium consisting of DMEM, L-glutamine, 0.1% bovine serum albumin (BSA) and 10,000 U/ml PS.
The cells were then preincubated with lipids in the culture medium (100 μl/well) for 30-60 minutes at 37° C. Samples of SARS-CoV-2 virus were added at multiplicities of infection (MOI) of 0.01 and the virus was allowed to absorb for 2 hours at 37° C. […]
FIGS. 1A and 1B depicts the results obtained for quantitative plaque assay for SARS-CoV-2 (FIG. 1A) and for % viral yield as a function of phospholipid concentration (FIG. 1B).

SARS-CoV-2 [6] = test: SARS-CoV-2 replication by qRT-PCR in differentiated nasal epithelial cells from a patient with COPD; assay type: cell-based; details: 48 hrs, 5 mg/ml POPG, 2 mg/ml PI
SARS-CoV-2 [7] = test: hamster model of SARS-CoV-2 infection, intranasal treatment; assay type: in vivo, Syrian hamsters

| Molecule | state of infected cell cultures (cytopathic effect) (SARS-CoV-2 [1]) | toxicity on VeroE6 cells (VeroE6 cells) | binding to SARS-CoV-2 S1 ECD protein [2] | pleiotropic inhibition of metabolism (3H-intracellular protein synthesis, 3H secreted protein) [3] | cytotoxic effects on primary airway epithelial cells [3] | reduction of SARS-CoV-2 mRNA expression (SARS-CoV-2 [4]) [%] | replication in differentiated nasal epithelial cells of severe asthmatics (SARS-CoV-2 [4]) | suppression of the viral burden elicited by SARS-CoV-2 (SARS-CoV-2 [5]) [%] | attenuation of SARS-CoV-2 replication (SARS-CoV-2 [6]) [%] | effect on SARS-CoV-2 replication (SARS-CoV-2 [4]; healthy control subjects, PC 10 mg/ml) | SARS-CoV-2 replication in hamsters (plaque assays of pharyngeal swabs) (SARS-CoV-2 [7]; PI 2 mg/animal intranasal, days 1-3) | mean turbinate viral load (SARS-CoV-2 [7]; hamsters, 2 mg PI intranasal, after 24 hours, untreated group 2.4E+04) | % inhibition of viral load (SARS-CoV-2 [7]; hamsters, single dose of 2 mg PI, after 24 hours, versus untreated) [%] | lowest concentration with significant reduction in viral load (SARS-CoV-2 [5]; 24 hr) |
| --- | --- | --- | --- | --- | --- | --- | --- | --- | --- | --- | --- | --- | --- | --- |
| CCCCCCCC/C=C\CCCCCCCC(=O)O[C@H](COC(=O)CCCCCCCCCCCCCCC)COP(=O)(O)OCC(O)CO (stereo partly shown) [POPG, palmitoyl-oleoyl-phosphatidylglycerol] | remained intact | Neither POPG, PI or POPC elicited toxicity | weak affinity and non-specific manner | does not produce pleiotropic inhibition of metabolism | neither POPG nor PI had cytotoxic effects | 75 | inhibit replication | 90 | 80 |  |  |  |  |  |
| phosphatidylcholine [PC, reference compound] | significant cytopathic effects | Neither POPG, PI or POPC elicited toxicity |  |  |  |  |  |  |  | did not affect SARS-CoV-2 replication |  |  |  |  |
| phosphatidylinositol [PI] | remained intact | Neither POPG, PI or POPC elicited toxicity | weak affinity and non-specific manner | does not produce pleiotropic inhibition of metabolism | neither POPG nor PI had cytotoxic effects | 87 | inhibit replication | 99 | 85 |  | inhibits SARS-CoV-2 replication | 9.3E+01 | 99.6 | ≥ 250 |
